Measured values as given in patent publication US20210261495A1, “COMPOSITIONS AND METHODS OF USING ITACONIC ACID DERIVATIVES” (ERGON PHARMACEUTICALS, LLC, priority 2018, published 2021).

Tested on: hCD8^+ T cells
Test: Proliferation of TCR-activated hCD8+ T cells, CFSE dilution
Format: cell-based, human
Conditions: 10 nM, compared to untreated TCR-activated control cells
Description: Augmentation of CD8^+ T Cell Proliferation. Naïve hCD8^+ T cells were isolated from commercially available buffy coats using magnetic separation and the appropriate kit from Miltenyi Biotec. Cells were then subject to TCR activation using a cocktail of anti-CD2/anti-CD^3/anti-CD28 antibodies. Untreated control and treated cells were included in the experiment. The cells were cultured for 72 hrs in TexMACS media (Miltenyi Biotec) without IL-2 and for an additional 48 hrs in TexMACS media containing 20U human IL-2/mL. Cell division was assessed by flow cytometry using the carboxyfluorescein succimidyl ester (CFSE) dilution method.

O=C(O)/C(=C\c1ccc(F)cc1)C(Cc1ccccc1)C(=O)O (stereo not shown) [Compound (6), 2-benzyl-3-[(4-flurophenyl)methylidene]butanedioic acid]
proliferation of TCR-activated hCD8+ T cells: increased proliferation
